{"source": "patent US12016959B2", "about": "“Sustained drug release sheet for treating nerve injury” (OSAKA UNIVERSITY, priority 2016, dated 2024)", "key": {"[1]": {"assay": "Concentration of vitamin B12 (drug) in blood, rat sciatic nerve crush injury model", "format": "in vivo", "conditions": "6 weeks after surgery; mean±SEM", "procedure": "The examination on the sheet that contained the present extract as a drug was carried out in the same manner.\nBlood was collected in an amount of 1 mL from the left ventricle of a rat under anesthesia 6 weeks after the surgery. The collected blood was centrifuged at 800×g for 20 minutes to collect a supernatant. The measurement of a concentration of vitamin B12 in the blood was entrusted to BML, INC. (Tokyo)."}, "[2]": {"tested_on": "rat sciatic nerve crush injury model", "assay": "Motor function, sciatic function index (SFI), rat sciatic nerve crush injury model", "format": "in vivo", "conditions": "6 weeks after surgery; 0 = normal, −100 = impaired; untreated group −20.6±4.2; mean±SEM", "method": "(§1) All of animal experiments were went ahead with the approval of the Ethics Committee of the animal laboratory of Osaka University. Six-week-old male Wistar rats (body weights: about 200 g) were used. All of the surgeries were carried out while applying deep sedation with a mixed anesthetic drug composed of midazolam (2 mg/kg), butorphanol (2.5 mg/kg) and medetomidine (0.15 mg/kg). A left sciatic nerve was exposed under clean operations, and a crush injury was applied to a position 5 mm distal to a sciatic notch with a pair of forceps. The time of crushing was 10 seconds, the frequency of crushing operations was three times, and the intervals between the crushing operations was 10 seconds. The fascia and the skin were sutured together with 4-0 nylon. […] The systemic administration of methylcobalamin was performed by placing an osmotic minipump (Model 2ML2; Alzet, Cupertino, CA, USA) under the skin of the back. […]\nFor the evaluation of a motor function, a sciatic function index (SFI) was measured 6 weeks after the surgery. For the measurement of an SFI, an ink was applied to the back paw of a rat, then the rat was allowed to walk on office paper placed on a 40 cm-square horizontal table, and then foot prints of the rat were recorded. The four items mentioned below were measured to calculate an SFI. […] An SFI value was calculated in accordance with the following mathematical formula. […]"}, "[3]": {"tested_on": "rat sciatic nerve crush injury model", "assay": "Sensory function, von Frey filament test, rat sciatic nerve crush injury model", "format": "in vivo", "conditions": "6 weeks after surgery; untreated group 117.8±11.7 g; mean±SEM", "method": "as §1\nFor the evaluation of a sensory function, a mechanical hind paw withdrawal threshold was measured 6 weeks after the surgery using a von Frey filament (0.008 to 26 g; Touch Test, North Coast Medical Inc, Gilroy, CA, USA). Each of the rats was made walk on a metallic mesh, then a pressure was applied onto the center of the sole until the filament began to bend, and then a value at which the rat evoked an escape behavior was recorded."}, "[4]": {"tested_on": "rat sciatic nerve crush injury model", "assay": "Electrophysiological evaluation (CMAP, TL, NCV), rat sciatic nerve crush injury model", "format": "in vivo", "conditions": "6 weeks after surgery, mean±SEM", "method": "(§2) All of animal experiments were went ahead with the approval of the Ethics Committee of the animal laboratory of Osaka University. Six-week-old male Wistar rats (body weights: about 200 g) were used. All of the surgeries were carried out while applying deep sedation with a mixed anesthetic drug composed of midazolam (2 mg/kg), butorphanol (2.5 mg/kg) and medetomidine (0.15 mg/kg). A left sciatic nerve was exposed under clean operations, and a crush injury was applied to a position 5 mm distal to a sciatic notch with a pair of forceps. The time of crushing was 10 seconds, the frequency of crushing operations was three times, and the intervals between the crushing operations was 10 seconds. The fascia and the skin were sutured together with 4-0 nylon. […] The systemic administration of methylcobalamin was performed by placing an osmotic minipump (Model 2ML2; Alzet, Cupertino, CA, USA) under the skin of the back. All of the surgeries were carried out by the same practitioner.\nEach of the rats 3 or 6 weeks after the surgery was sedated with an anesthetic drug and was then placed on an operating table in a prone position. A left sciatic nerve and a left tibialis anterior muscle were exposed. Each of a compound muscle action potential (CMAP) and a terminal latency (TL) was measured while stimulating a proximal site of a sciatic nerve with a bipolar electrode. A nerve conduction velocity (NCV) was calculated from measurement values respectively obtained at a proximal site and a distal site to the sciatic nerve crush injury while stimulating the positions with a bipolar electrode. In the measurement and the evaluation, AD Instruments Power Lab 2/26, Stimulus isolator, and Bio Amp and Chart & Scope software (all manufactured by AD Instruments, Bel la Vista, NSW, Australis) were used."}, "[5]": {"tested_on": "rat sciatic nerve crush injury model", "assay": "Histological evaluation (axons, MBP-positive axons), rat sciatic nerve crush injury model", "format": "in vivo", "conditions": "6 weeks after surgery, mean±SEM", "method": "as §2\nEach of the rats 6 weeks after the surgery was sedated with an anesthetic drug, and a left sciatic nerve was collected therefrom and then fixed with 4% PFA for 5 days and with 20% sucrose for 24 hours and then frozen and embedded. […] The total number of axons and the ratio of myelinated axons (total number of MBP-positive axons)/(total number of axons) were evaluated."}, "[6]": {"tested_on": "neurons", "conditions": "Non-Patent Document 2; cited from earlier work"}, "[7]": {"tested_on": "Erk1/2 and Akt", "conditions": "through the methylation cycle; Non-Patent Document 2; cited from earlier work"}, "[8]": {"tested_on": "rat sciatic nerve injury model", "conditions": "continuous high-dose administration; Non-Patent Document 2; cited from earlier work"}}, "data": [{"compound": "C/C1=C2/[N-][C@H]([C@H](CC(N)=O)[C@@]2(C)CCC(=O)NC[C@@H](C)OP(=O)([O-])O[C@H]2[C@@H](O)[C@@H](n3cnc4cc(C)c(C)cc43)O[C@@H]2CO)[C@]2(C)N=C(/C(C)=C3N=C(/C=C4N=C1[C@@H](CCC(N)=O)C\\4(C)C)[C@@H](CCC(N)=O)[C@]\\3(C)CC(N)=O)[C@@H](CCC(N)=O)[C@]2(C)CC(N)=O.[CH3-].[Co+3]", "note": "[MeCbl pump, methylcobalamin]", "values": [{"measurement": "concentration of vitamin B12 in the blood", "setting": "[1]", "result": "18.35 ± 2.27", "unit": "ng/mL"}, {"measurement": "sciatic function index (SFI)", "setting": "[2]", "result": "−10.5±2.0"}, {"measurement": "von Frey filament test, mechanical hind paw withdrawal threshold", "setting": "[3]", "result": "77.8 ± 7.0", "unit": "g"}, {"measurement": "terminal latency (TL)", "setting": "[4]; untreated group 3.45±0.08 ms", "result": "3.24 ± 0.07", "unit": "ms"}, {"measurement": "compound muscle action potential (CMAP)", "setting": "[4]; untreated group 19.5±2.3 mV", "result": "19.5±1.5", "unit": "mV"}, {"measurement": "nerve conduction velocity (NCV)", "setting": "[4]; untreated group 28.2±2.5 m/s", "result": "43.2±2.5", "unit": "m/s"}, {"measurement": "ratio of myelinated axons (number of MBP-positive axons)/(total number of axons)", "setting": "[5]; untreated group 85.0±0.9%", "result": "91.5±0.6", "unit": "%"}, {"measurement": "number of regenerated axons per sq. mm", "setting": "[5]; untreated group 2843±68/mm^2", "result": "2735±77 /mm^2"}, {"measurement": "concentration that can promote the elongation of neurites and the survival of neurons", "setting": "[6]", "result": "≥ 100", "unit": "nM"}, {"measurement": "activities of Erk1/2 and Akt", "setting": "[7]", "result": "increase the activities of Erk1/2 and Akt"}, {"measurement": "nerve regeneration and function recovery", "setting": "[8]", "result": "improves nerve regeneration and function recovery"}]}]}
